Patent US6355630B1, “Estra-1,3,5(10)-triene-7α-thioethers” (priority 1997, dated 2002)
Values joined by “and” are separate entries in the source; they are usually repeats but may differ in a detail not shown here. Equal entries are not always repeated. Where two headings read alike, the source gives them in different places. Blank lines part the entries; values can stand above or below the compound they belong to.

What was measured:
Ishikawa uterine cells = assay: Ishikawa cell alkaline phosphatase test procedure; type: cell-based, human; conditions: for EC50: reference standards, read-out: ED50, estrogenic activity by the alkaline phosphatase method; for Alkaline phosphatase activity, percent of response related to 1 nM 17β-estradiol: 48 h
Procedure: Ishikawa Cell Alkaline Phosphatase Test Procedure
Cell Maintenance and Treatment
Ishikawa cells were maintained in DMEM/F12 (50%:50%) containing phenol red+10% fetal bovine serum and the medium was supplemented with 2 mM Glutamax, 1% Pen/Strap and 1 mM sodium pyruvate. Five days prior to the beginning of each evaluation (treatment of cells) the medium was changed to phenol red-free DMEM/F12+10% dextran coated charcoal stripped serum. On the day before treatment, cells were harvested using 0.5% trypsin/EDTA and plated at a density of 5×10^4 cells/well in 96-well tissue culture plates. […] Cells were treated for 48 h prior to assay. […] Sample population for at each dose was n=8.
Alkaline Phosphatase Test Procedure
At the end of 48 h the media was aspirated and cells were washed three times with phosphate buffered saline (PBS); 50 μL of lysis buffer (0.1 M Tris-HCl, pH 9.8, 0.2% Triton X-100) was added to each well. Plates were placed at −80° C. for a minimum of 15 minutes. Plates were thawed at 37° C. followed by the addition of 150 μL of 0.1 M Tris-HCl, pH 9.8, containing 4 mM para-nitrophenylphosphate (pNPP) to each well (final concentration, 3 mM pNPP).
Absorbance and slope calculations were made using the KineticCalc Application program (Bio-Tek Instruments, Inc., Winooski, Vt.). Results are expressed as the mean +/−S.D. of the rate of enzyme reaction (slope) averaged over the linear portion of the kinetic reaction curve (optical density readings every 5 minutes for 30 minutes absorbance reading).
The four compounds were used as reference standards:
A description of these methods is described by Holinka, C. F., Hata, H., Kuramoto, H. and Gurpide, E. (1986) Effects of steroid hormones and antisteroids on alkaline phosphatase activity in human endometrial cancer cells (Ishikawa Line). Cancer Research, 46:2771-2774, and by Littlefield, B. A., Gurpide, E., Markiewicz, L., McKinley, B. and Hochberg, R. B. (1990) A simple and sensitive microtiter plate estrogen bioassay based on stimulation alkaline phosphatase in Ishikawa cells; Estrogen action of D5 adrenal steroids. Endocrinology, 6:2757-2762.

rat uterus = assay: Rat uterotrophic/antiuterotrophic test procedure; type: in vivo; conditions: 1 ug 17β-estradiol, daily ip, 4-day immature rat
Procedure: Rat Uterotrophic/Antiuterotrophic Test Procedure
The estrogenic and antiestrogenic properties of the compounds were determined in a 4-day immature rat uterotrophic assay (as described previously by L. J. Black and R. L. Goode, Life Sciences, 26, 1453 (1980)). Immature Sprague-Dawley rats (female, 18 days old) were tested in groups of six. […] On day 4 the animals were sacrificed by CO2 asphyxiation and their uteri were removed and stripped of excess lipid, any fluid removed and the wet weight determined. A small section of one horn was submitted for histology and the remainder used to isolate total RNA in order to evaluate complement component 3 gene expression.
Representative compounds of this invention were evaluated in the rat uterotrophic/antiuterotrophic assay to determine their in vivo effects on the rat uterus.

human estrogen receptor = molecular target: T1, human estrogen receptor (Homo sapiens, UniProt P03372); assay: In vitro estrogen receptor binding test procedure ([3H]-17β-estradiol competition)
T1 construct: expressed in transfected cells; host or cells: Chinese Hamster ovary (CHO) cells; ribosome-free cytosol
T1 sequence (P03372 1-595): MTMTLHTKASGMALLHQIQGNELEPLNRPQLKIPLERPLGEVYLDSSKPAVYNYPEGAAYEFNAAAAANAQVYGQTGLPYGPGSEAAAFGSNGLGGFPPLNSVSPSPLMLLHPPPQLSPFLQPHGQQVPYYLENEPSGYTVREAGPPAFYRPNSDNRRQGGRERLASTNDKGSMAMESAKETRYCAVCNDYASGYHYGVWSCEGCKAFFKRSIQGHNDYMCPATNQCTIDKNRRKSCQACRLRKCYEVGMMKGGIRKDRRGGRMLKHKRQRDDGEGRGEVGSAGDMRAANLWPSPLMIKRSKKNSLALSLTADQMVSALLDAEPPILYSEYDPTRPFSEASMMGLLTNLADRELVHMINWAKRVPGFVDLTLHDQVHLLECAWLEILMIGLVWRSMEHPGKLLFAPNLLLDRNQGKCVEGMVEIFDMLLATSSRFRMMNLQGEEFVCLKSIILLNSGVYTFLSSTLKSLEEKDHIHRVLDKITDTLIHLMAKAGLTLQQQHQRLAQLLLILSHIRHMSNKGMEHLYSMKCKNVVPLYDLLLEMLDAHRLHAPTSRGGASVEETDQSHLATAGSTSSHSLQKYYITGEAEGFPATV
Procedure: In vitro Estrogen Receptor Binding Test Procedure
Chinese Hamster ovary (CHO) cells overexpressing the estrogen receptor were grown in […] dishes in DMEM+10% dextran coated charcoal, stripped fetal bovine serum. The plates were washed twice with PBS and once with 10 mM Tris-HCl, pH 7.4, 1 mM EDTA. Cells were harvested by scraping the surface and then the cell suspension was placed on ice. Cells were disrupted with a hand-held motorized tissue grinder using two, 10-second bursts. The crude preparation was centrifuged at 12,000 g for 20 minutes followed by a 60 minute spin at 100,000 G to produce a ribosome free cytosol. The cytosol was then frozen and stored at −80° C. Protein concentration of the cytosol was estimated using the BCA assay with reference standard protein.
Binding Test Procedure Conditions
100 uG/100 uL of the receptor preparation was aliquoted per well. […] The plate was incubated at room temperature for 2.5 h. At the end of this incubation period 150 uL of ice-cold dextran coated charcoal (5% activated charcoal coated with 0.05% 69K dextran) was added to each well and the plate was immediately centrifuged at 99 g for 5 minutes at 4° C. 200 uL of the supernatant solution was then removed for scintillation counting. Samples were counted to 2% or 10 minutes, whichever occurs first. […] Also, wells containing radioactivity but no cytosol were processed with charcoal to estimate unremovable DPM of [^3H] […] 96-well plates were used because they have proven to bind the least amount of estradiol.
Counts per minute (CPM) of radioactivity were automatically converted to disintegrated per minute (DPM) by the Beckman LS 7500 Scintillation Counter using a set of quenched standards to generate a H# for each sample. To calculate the % of estradiol binding in the presence of 100 or 500 fold competitor the following formula was applied:
((DPM sample−DPM not removed by charcoal/(DPM estradiol−DPM not removed by charcoal))×100%=% of estradiol binding
For the generation of IC50 curves, % binding is plotted vs compound. […] Values are reported as IC50 values. […] For a description of these methods, see Hulme, E. C., ed. 1992. Receptor-Ligand Interactions: A Practical Approach. IRL Press, New York.(see especially chapter 8).
Compounds were tested for their ability to displace estradiol in a human ER-receptor preparation as described above.

[1] = 1 uM compound + 1 nM E2, antagonist mode

SMILES: C[C@]12CC[C@@H]3c4ccc(O)cc4CC[C@H]3[C@@H]1CC[C@H]2O [17α-estradiol, reference compound]
EC50 (Ishikawa uterine cells): 1.42 nM

EC50 (Ishikawa uterine cells; Homo sapiens, Ishikawa): 0.03 nM
SMILES: C[C@]12CC[C@@H]3c4ccc(O)cc4CC[C@H]3[C@@H]1CC[C@@H]2O [17β-estradiol, reference compound]
Uterine wet weight (rat uterus): 87.6 mg and 82.1 mg and 92.6 mg and 83.8 mg and 94.6 mg

SMILES: CC(=O)O[C@H]1CC[C@H]2[C@@H]3[C@H](Sc4ccc(O)cc4)C(=O)c4cc(O)ccc4[C@H]3CC[C@]12C [Example 1, (7α,17β) 17-Acetoxy-3-hydroxy-7-(4-hydroxyphenyl)thio-estra-1,3,5(10)-triene-6-one]
Alkaline phosphatase activity, percent of response related to 1 nM 17β-estradiol (Ishikawa uterine cells; 0.01 uM compound, agonist mode): 7%
Alkaline phosphatase activity, percent of response related to 1 nM 17β-estradiol (Ishikawa uterine cells; 0.1 uM compound, agonist mode): 9%
Alkaline phosphatase activity, percent of response related to 1 nM 17β-estradiol (Ishikawa uterine cells; [1]): 76%
Alkaline phosphatase activity, percent of response related to 1 nM 17β-estradiol (Ishikawa uterine cells; 1 uM compound, agonist mode): 29%

SMILES: CC(=O)O[C@H]1CC[C@H]2[C@@H]3[C@H](Sc4ccc(Br)cc4)C(=O)c4cc(O)ccc4[C@H]3CC[C@]12C [Example 5, (7α,17β) 17-Acetoxy-7-(4-bromophenyl)thio-3-hydroxy-estra-1,3,5(10)-trien-6-one]
Alkaline phosphatase activity, percent of response related to 1 nM 17β-estradiol (Ishikawa uterine cells; 0.01 uM compound, agonist mode): 58%
Alkaline phosphatase activity, percent of response related to 1 nM 17β-estradiol (Ishikawa uterine cells; 0.1 uM compound, agonist mode): 108%
Alkaline phosphatase activity, percent of response related to 1 nM 17β-estradiol (Ishikawa uterine cells; [1]): 106%
Alkaline phosphatase activity, percent of response related to 1 nM 17β-estradiol (Ishikawa uterine cells; 1 uM compound, agonist mode): 104%
Behaviour in the uterine cell line (agonist/antagonist) (Ishikawa uterine cells; in words, from Table 2): fully efficacious agonists

SMILES: C[C@]12CC[C@@H]3c4ccc(O)cc4[C@@H](O)[C@@H](Sc4ccc(Br)cc4)[C@H]3[C@@H]1CC[C@@H]2O [Example 7, (6α,7α,17β) 7-(4-Bromophenyl)thio-estra-1,3,5(10)-triene-3,6,17-triol]
IC50 (human estrogen receptor): 800 nM
Alkaline phosphatase activity, percent of response related to 1 nM 17β-estradiol (Ishikawa uterine cells; 0.01 uM compound, agonist mode): 46%
Alkaline phosphatase activity, percent of response related to 1 nM 17β-estradiol (Ishikawa uterine cells; 0.1 uM compound, agonist mode): 58%
Alkaline phosphatase activity, percent of response related to 1 nM 17β-estradiol (Ishikawa uterine cells; [1]): 98%
Alkaline phosphatase activity, percent of response related to 1 nM 17β-estradiol (Ishikawa uterine cells; 1 uM compound, agonist mode): 66%

SMILES: COC(=O)C=Cc1ccc(S[C@@H]2Cc3cc(O)ccc3[C@H]3CC[C@]4(C)[C@@H](OC(C)=O)CC[C@H]4[C@@H]32)cc1 [Example 9, (7α,17β) 7-{4-[2-(Methoxycarbonyl)-ethenyl]phenyl}thio-estra-1,3,5(10)-triene-3,17-diol-17-acetate]
Receptor IC50 (human estrogen receptor; displacement of [3H]17β-estradiol, CHO cell cytosol ER preparation): No Binding
Competition for the human estrogen receptor (human estrogen receptor; in words, compounds with 17β-acetate): competed less effectively
Alkaline phosphatase activity, percent of response related to 1 nM 17β-estradiol (Ishikawa uterine cells; 0.01 uM compound, agonist mode): 1%
Alkaline phosphatase activity, percent of response related to 1 nM 17β-estradiol (Ishikawa uterine cells; 0.1 uM compound, agonist mode): 33%
Alkaline phosphatase activity, percent of response related to 1 nM 17β-estradiol (Ishikawa uterine cells; [1]): 59%
Alkaline phosphatase activity, percent of response related to 1 nM 17β-estradiol (Ishikawa uterine cells; 1 uM compound, agonist mode): 61%

SMILES: CN(C)C(=O)/C=C/c1ccc(S[C@@H]2Cc3cc(O)ccc3[C@H]3CC[C@]4(C)[C@@H](O)CC[C@H]4[C@@H]32)cc1 [Example 10, (7α,17β) 7-{4-[(E)-2-(N,N-Dimethylcarbamoyl)-ethenyl]phenyl}thio-estra-1,3,5(10)-triene-3,17-diol]
Alkaline phosphatase activity, percent of response related to 1 nM 17β-estradiol (Ishikawa uterine cells; 0.01 uM compound, agonist mode): 0%
Alkaline phosphatase activity, percent of response related to 1 nM 17β-estradiol (Ishikawa uterine cells; 0.1 uM compound, agonist mode): 12%
Alkaline phosphatase activity, percent of response related to 1 nM 17β-estradiol (Ishikawa uterine cells; [1]): 57%
Alkaline phosphatase activity, percent of response related to 1 nM 17β-estradiol (Ishikawa uterine cells; 1 uM compound, agonist mode): 28%

SMILES: C[C@]12CC[C@@H]3c4ccc(O)cc4C[C@@H](Sc4ccc(C=CC(=O)O)cc4)[C@H]3[C@@H]1CC[C@@H]2O [Example 11, (7α,17β) 7-{4-[2-(Carboxy)-ethenyl]phenyl}thio-estra-1,3,5(10)-triene-3,17-diol]
IC50 (human estrogen receptor): 1500 nM
Alkaline phosphatase activity, percent of response related to 1 nM 17β-estradiol (Ishikawa uterine cells; 0.01 uM compound, agonist mode): 0%
Alkaline phosphatase activity, percent of response related to 1 nM 17β-estradiol (Ishikawa uterine cells; 0.1 uM compound, agonist mode): 23%
Alkaline phosphatase activity, percent of response related to 1 nM 17β-estradiol (Ishikawa uterine cells; [1]): 50%
Alkaline phosphatase activity, percent of response related to 1 nM 17β-estradiol (Ishikawa uterine cells; 1 uM compound, agonist mode): 21%

SMILES: CC12CCC3c4ccc(O)cc4CC(Sc4ccc(-c5ccc(C=O)cc5)cc4)C3C1CCC2O (stereo not drawn) [Example 12, (7α,17β) 7-(4-(4′-Formylbiphenyl)]thio-estra-1,3,5(10)-triene-3,17-diol]
IC50 (human estrogen receptor; read-out: Receptor IC50): 300 nM
Alkaline phosphatase activity, percent of response related to 1 nM 17β-estradiol (Ishikawa uterine cells; 0.01 uM compound, agonist mode): 17%
Alkaline phosphatase activity, percent of response related to 1 nM 17β-estradiol (Ishikawa uterine cells; 0.1 uM compound, agonist mode): 67%
Alkaline phosphatase activity, percent of response related to 1 nM 17β-estradiol (Ishikawa uterine cells; [1]): 92%
Alkaline phosphatase activity, percent of response related to 1 nM 17β-estradiol (Ishikawa uterine cells; 1 uM compound, agonist mode): 89%

SMILES: COc1ccc2c(c1)CC(Sc1ccc(OCCN3CCCCC3)cc1)C1C2CCC2(C)C(O)CCC12 (stereo not drawn) [Example 15, (7α,17β) 3-Methoxy-7-{4-[2-(piperdin-1-yl)]ethoxyphenyl}thio-estra-1,3,5(10)-triene-17-ol]
Alkaline phosphatase activity, percent of response related to 1 nM 17β-estradiol (Ishikawa uterine cells; 0.01 uM compound, agonist mode): 0%
Alkaline phosphatase activity, percent of response related to 1 nM 17β-estradiol (Ishikawa uterine cells; 0.1 uM compound, agonist mode): 0%
Alkaline phosphatase activity, percent of response related to 1 nM 17β-estradiol (Ishikawa uterine cells; [1]): 69%
Alkaline phosphatase activity, percent of response related to 1 nM 17β-estradiol (Ishikawa uterine cells; 1 uM compound, agonist mode): 22%

EC50 (Ishikawa uterine cells; Homo sapiens, Ishikawa): 0.13 nM
SMILES: C[C@]12CC[C@@H]3c4ccc(O)cc4CC[C@H]3[C@@H]1C[C@@H](O)[C@@H]2O [estriol, reference compound]

EC50 (Ishikawa uterine cells; Homo sapiens, Ishikawa): 0.36 nM
SMILES: C[C@]12CC[C@@H]3c4ccc(O)cc4CC[C@H]3[C@@H]1CCC2=O [estrone, reference compound]
